# Measurements taken from US20200323793A1, “COMBINATION THERAPY COMPRISING A POLYUNSATURATED KETONE AND A CALCINEURIN INHIBITOR” (Avexxin AS, priority 2016, published 2020).
# Assays:
# [1] = system: skin keratinocyte cell line HaCaT; test: Resazurin assay, HaCaT proliferation and viability, Example 1 (24 hours of treatment); format: cell-based; settings: Homo sapiens, 25 μM alone, read-out: reduction of proliferation and viability of HaCaT cells
# Procedure: (§1) The spontaneously immortalized, nontumorigenic skin keratinocyte cell line HaCaT was maintained in DMEM supplemented with 5% (v/v) FBS, 0.3 mg/ml glutamine and 0.1 mg/ml gentamicin at 37° C. with 5% CO2 in a humidified atmosphere. Subculture using trypsin-EDTA was performed every 3-4 days with split ratio of 1:3-1:4 to ensure actively proliferating cells.
# Cells were seeded in 96 well plates in fully supplemented medium at a density of 2500 cells per well. Following 72 hours of cultivation, the cells were starved of serum in 0.25% FBS/DMEM overnight to halt proliferation, synchronize and to increase cell sensitivity to treatment. On day 4, the cells were treated with cPLA2α inhibitor Compound A1 and immunomodulator Pimecrolimus (Karebay Biochem # Ki0907) and left to incubate for […] in incubator at 37° C. with 5% CO2 in a humidified atmosphere before fluorescence was read at 544 nm excitation and 590 nm emission wavelength. The cells were observed under the microscope to evaluate possible morphology changes and signs of stress before addition of resazurin. The experiments were performed in series of 8 wells per treatment and repeated 2-3 times.
# [2] = system: skin keratinocyte cell line HaCaT; test: Resazurin assay, HaCaT cell viability, Example 2 (48 hours of treatment); format: cell-based, human; settings: each alone, dose response over 48 hours
# Procedure: as §1
# Cells were seeded in 96 well plates in fully supplemented medium at a density of 3000 cells per well. Following 72 hour of cultivation, the cells were starved of serum in 0.25% FBS/DMEM overnight to halt proliferation, synchronize the cells and to increase cell sensitivity to treatment. Next day, the cells were treated with Compound A1 and calcineurin inhibitor Pimecrolimus for 48 hours. Resazurin was added according to the manufacturer's instruction (RnD Systems, UK) and left to incubate for […] in incubator at 37° C. with 5% CO2 in a humidified atmosphere before fluorescence was read at 544 nm excitation and 590 nm emission wavelength. The cells were observed under the microscope to evaluate possible morphology changes and signs of stress before addition of resazurin. The experiments were performed in series of 8 wells per treatment.
compound,measurement,setting,value
CC[C@@H]1/C=C(\C)C[C@H](C)C[C@H](OC)[C@H]2O[C@@](O)(C(=O)C(=O)N3CCCC[C@H]3C(=O)O[C@H](/C(C)=C/[C@@H]3CC[C@H](Cl)[C@H](OC)C3)[C@H](C)[C@@H](O)CC1=O)[C@H](C)C[C@@H]2OC [Pimecrolimus],cytotoxicity at 25 µM,[1],~15%
same,activity against viability of the cells (dose response),[2],active inhibitors
